{"source": "patent US7435751B2", "about": "“7-Fluoro-1,3-dihydro-indol-2-one oxazolidinones as antibacterial agents” (priority 2005, dated 2008)", "key": {"E. faecium (VREF)": {"system": "E. faecium (VREF)", "assay": "In vitro antibacterial activity, MIC90 against E. faecium (VREF)", "assay_type": "cell-based", "conditions": "Enterococcus faecium", "excerpt": "(§1) The in vitro antibacterial activity of the compounds of the present invention may be assessed by following procedures recommended in (1) National Committee for Clinical Laboratory Standards (January 2003), Methods for dilution antimicrobial tests for bacteria that grow aerobically, Approved Standard (6th ed), M7-A6, NCCLS, Wayne, Pa.; (2) National Committee for Clinical Laboratory Standards (March 2001), Methods for antimicrobial susceptibility testing of anaerobic bacteria, Approved Standard (5th ed), M11-A4, NCCLS, Wayne, Pa.; (3) National Committee for Clinical Laboratory Standards (Jan. 2003), MIC testing supplemental tables, M100-S13 (for use with M7-A6), NCCLS, Wayne, Pa.; and (4) Murray P R, Baron E J, Jorgensen J H, et al. Manual of Clinical Microbiology (8th ed) Washington, D.C.: American Society for Microbiology Press, 2003. The antibacterial activity can be presented in the form of MIC value. The MIC value is the lowest concentration of drug which prevented macroscopically visible growth under the conditions of the test."}, "S. pneumoniae (LRSA)": {"system": "S. pneumoniae (LRSA)", "assay": "In vitro antibacterial activity, MIC90 against S. pneumoniae (LRSA)", "assay_type": "cell-based", "conditions": "Streptococcus pneumoniae", "excerpt": "as §1"}, "MAO-B": {"molecular_target": "T1, MAO-B (Homo sapiens, UniProt P27338)", "T1 sequence (P27338 1-520)": "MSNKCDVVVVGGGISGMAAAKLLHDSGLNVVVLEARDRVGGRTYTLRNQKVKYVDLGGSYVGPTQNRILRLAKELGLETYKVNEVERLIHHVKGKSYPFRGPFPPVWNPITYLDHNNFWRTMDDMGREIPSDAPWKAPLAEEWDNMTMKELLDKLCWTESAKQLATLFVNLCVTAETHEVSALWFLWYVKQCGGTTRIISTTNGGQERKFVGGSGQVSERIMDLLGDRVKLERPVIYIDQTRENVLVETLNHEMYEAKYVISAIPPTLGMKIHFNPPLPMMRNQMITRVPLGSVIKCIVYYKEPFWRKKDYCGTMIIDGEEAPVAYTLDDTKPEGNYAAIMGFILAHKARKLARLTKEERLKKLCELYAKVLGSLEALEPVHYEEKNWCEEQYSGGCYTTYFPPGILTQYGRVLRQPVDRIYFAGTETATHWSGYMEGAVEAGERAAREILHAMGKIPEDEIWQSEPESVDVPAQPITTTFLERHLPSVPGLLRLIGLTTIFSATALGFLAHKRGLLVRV", "assay": "Monoamine oxidase B inhibition (conversion of MAO substrate to dihydropyridinium metabolite)", "assay_type": "biochemical", "conditions": "substrate at Km 43 μM; MAO-B 0.008 mg/mL", "experimental": "(§2) Following procedure may assess monoamine oxidase inhibition activity of the compounds of the present invention:\n(§3) MAO-A and B inhibition were analyzed by measuring the inhibition of conversion of an MAO substrate, 1-methyl-4-(1-methyl-2-pyrryl)-1,2,3,6-tetrahydropyridine, to its dihydropyridinium metabolite (λ=421 nm). The substrate concentration was equal to the Km (64 μM for MAO-A and 43 μM for MAO-B). The MAO-A concentration was 0.01 mg/mL, and the MAO-B concentration was 0.008 mg/mL. Each inhibitor was tested at seven concentrations. Percent inhibition at each concentration was established relative to the uninhibited control rate, and the IC50 and Ki values were calculated."}, "S. aureus (LORSA)": {"system": "S. aureus (LORSA)", "assay": "In vitro antibacterial activity, MIC90 against S. aureus (LORSA)", "assay_type": "cell-based", "conditions": "Staphylococcus aureus", "excerpt": "as §1"}, "E. faecalis (VREF)": {"system": "E. faecalis (VREF)", "assay": "In vitro antibacterial activity, MIC90 against E. faecalis (VREF)", "assay_type": "cell-based", "conditions": "Enterococcus faecalis", "excerpt": "as §1"}, "MAO-A": {"molecular_target": "T2, MAO-A (Homo sapiens, UniProt P21397)", "T2 sequence (P21397 1-527)": "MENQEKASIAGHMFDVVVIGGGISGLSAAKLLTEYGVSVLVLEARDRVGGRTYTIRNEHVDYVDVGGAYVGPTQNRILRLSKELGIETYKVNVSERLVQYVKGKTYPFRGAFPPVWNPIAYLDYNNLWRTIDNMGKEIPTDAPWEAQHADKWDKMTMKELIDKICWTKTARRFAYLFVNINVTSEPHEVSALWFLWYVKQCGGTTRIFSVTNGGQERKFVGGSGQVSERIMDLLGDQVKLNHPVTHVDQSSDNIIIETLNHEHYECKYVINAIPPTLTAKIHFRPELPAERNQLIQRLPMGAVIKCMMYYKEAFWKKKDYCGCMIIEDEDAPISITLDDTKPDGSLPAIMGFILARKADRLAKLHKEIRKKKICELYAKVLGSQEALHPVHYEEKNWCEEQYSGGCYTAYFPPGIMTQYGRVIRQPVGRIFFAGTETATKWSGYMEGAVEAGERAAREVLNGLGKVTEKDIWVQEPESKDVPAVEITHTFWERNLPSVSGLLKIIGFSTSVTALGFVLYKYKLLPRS", "assay": "Monoamine oxidase A inhibition (conversion of MAO substrate to dihydropyridinium metabolite)", "assay_type": "biochemical", "conditions": "substrate at Km 64 μM; MAO-A 0.01 mg/mL", "experimental": "as §2, §3"}, "S. aureus UC-76 SA-1": {"system": "S. aureus UC-76 SA-1", "assay": "In vitro antibacterial activity against S. aureus UC-76 SA-1", "assay_type": "cell-based", "conditions": "Staphylococcus aureus, UC76; strain UC-76 SA-1", "excerpt": "as §1"}, "S. pneumoniae SV1 SP-3": {"system": "S. pneumoniae SV1 SP-3", "assay": "In vitro antibacterial activity against S. pneumoniae SV1 SP-3", "assay_type": "cell-based", "conditions": "Streptococcus pneumoniae, SV1SP3; strain SV1 SP-3", "excerpt": "as §1"}, "E. faecalis MGH-2 EF 1-1": {"system": "E. faecalis MGH-2 EF 1-1", "assay": "In vitro antibacterial activity against E. faecalis MGH-2 EF 1-1", "assay_type": "cell-based", "conditions": "Enterococcus faecalis, MGH2EF11; strain MGH-2 EF 1-1", "excerpt": "as §1"}}, "note": "pKi: −log10 of the molar value."}
{"smiles": "COC(=O)NC[C@H]1CN(c2cc(F)c3c(c2)CC(=O)N3C)C(=O)O1", "note": "[Example 1, (5S)-[3-(7-fluoro-1-methyl-2-oxo-2,3-dihydro-1H-indol-5-yl)-2-oxo-oxazolidin-5-ylmethyl]-carbamic acid methyl ester]", "values": [{"measurement": "MIC90", "setting": "E. faecium (VREF)", "result": 4, "unit": "µg/mL"}, {"measurement": "MIC90", "setting": "S. pneumoniae (LRSA)", "result": 4, "unit": "µg/mL"}, {"measurement": "pKi", "setting": "MAO-B", "result": 4.28}, {"measurement": "MIC90", "setting": "S. aureus (LORSA)", "result": 4, "unit": "µg/mL"}, {"measurement": "MIC90", "setting": "E. faecalis (VREF)", "result": 4, "unit": "µg/mL"}, {"measurement": "pKi", "setting": "MAO-A", "result": 3.14}]}
{"smiles": "COC(=O)NC[C@H]1CN(c2cc(F)c3c(c2)CC(=O)N3CC2CC2)C(=O)O1", "note": "[Example 7, (S)-[3-(1-cyclopropylmethyl-7-fluoro-2-oxo-2,3-dihydro-1H-indol-5-yl)-2-oxo-oxazolidin-5-ylmethyl]-carbamic acid methyl ester]", "values": [{"measurement": "MIC90", "setting": "S. aureus UC-76 SA-1", "result": 4, "unit": "µg/mL"}, {"measurement": "MIC90", "setting": "S. pneumoniae SV1 SP-3", "result": 4, "unit": "µg/mL"}, {"measurement": "MIC90", "setting": "E. faecalis MGH-2 EF 1-1", "result": 4, "unit": "µg/mL"}]}
{"smiles": "CCCN1C(=O)Cc2cc(N3C[C@H](CNC(=O)OC)OC3=O)cc(F)c21", "note": "[Example 5, (S)-[3-(7-fluoro-2-oxo-1-propyl-2,3-dihydro-1H-indol-5-yl)-2-oxo-oxazolidin-5-ylmethyl]-carbamic acid methyl ester]", "values": [{"measurement": "MIC90", "setting": "S. aureus UC-76 SA-1", "result": 8, "unit": "µg/mL"}, {"measurement": "MIC90", "setting": "S. pneumoniae SV1 SP-3", "result": 4, "unit": "µg/mL"}, {"measurement": "MIC90", "setting": "E. faecalis MGH-2 EF 1-1", "result": 8, "unit": "µg/mL"}]}
{"smiles": "CCN1C(=O)Cc2cc(N3C[C@H](CNC(=O)OC)OC3=O)cc(F)c21", "note": "[Example 3, (S)-[3-(1-ethyl-7-fluoro-2-oxo-2,3-dihydro-1H-indol-5-yl)-2-oxo-oxazolidin-5-ylmethyl]-carbamic acid methyl ester]", "values": [{"measurement": "MIC90", "setting": "S. aureus UC-76 SA-1", "result": 4, "unit": "µg/mL"}, {"measurement": "MIC90", "setting": "S. pneumoniae SV1 SP-3", "result": 4, "unit": "µg/mL"}, {"measurement": "MIC90", "setting": "E. faecalis MGH-2 EF 1-1", "result": 2, "unit": "µg/mL"}]}
{"smiles": "COC(=O)NC[C@H]1CN(c2cc(F)c3c(c2)CC(=O)N3C2CC2)C(=O)O1", "note": "[Example 6, (S)-[3-(1-cyclopropyl-7-fluoro-2-oxo-2,3-dihydro-1H-indol-5-yl)-2-oxo-oxazolidin-5-ylmethyl]-carbamic acid methyl ester]", "values": [{"measurement": "MIC90", "setting": "S. aureus UC-76 SA-1", "result": 8, "unit": "µg/mL"}, {"measurement": "MIC90", "setting": "S. pneumoniae SV1 SP-3", "result": 8, "unit": "µg/mL"}, {"measurement": "MIC90", "setting": "E. faecalis MGH-2 EF 1-1", "result": 8, "unit": "µg/mL"}]}
{"smiles": "COC(=O)NC[C@H]1CN(c2cc(F)c3c(c2)CC(=O)N3C(C)C)C(=O)O1", "note": "[Example 2, (5S)-[3-(7-fluoro-1-isopropyl-2-oxo-2,3-dihydro-1H-indol-5-yl)-2-oxo-oxazolidin-5-ylmethyl]-carbamic acid methyl ester]", "values": [{"measurement": "MIC90", "setting": "E. faecium (VREF)", "result": 2, "unit": "µg/mL"}, {"measurement": "MIC90", "setting": "S. pneumoniae (LRSA)", "result": 2, "unit": "µg/mL"}, {"measurement": "pKi", "setting": "MAO-B", "result": 5.50}, {"measurement": "MIC90", "setting": "S. aureus (LORSA)", "result": 4, "unit": "µg/mL"}, {"measurement": "MIC90", "setting": "E. faecalis (VREF)", "result": 2, "unit": "µg/mL"}, {"measurement": "pKi", "setting": "MAO-A", "result": "< 3.30"}]}
{"smiles": "COC(=O)NC[C@H]1CN(c2cc(F)c3c(c2)CC(=O)N3CCF)C(=O)O1", "note": "[Example 4, (S)-{3-[7-fluoro-1-(2-fluoro-ethyl)-2-oxo-2,3-dihydro-1H-indol-5-yl]-2-oxo-oxazolidin-5-ylmethyl}-carbamic acid methyl ester]", "values": [{"measurement": "MIC90", "setting": "S. aureus UC-76 SA-1", "result": 4, "unit": "µg/mL"}, {"measurement": "MIC90", "setting": "S. pneumoniae SV1 SP-3", "result": 4, "unit": "µg/mL"}, {"measurement": "MIC90", "setting": "E. faecalis MGH-2 EF 1-1", "result": 2, "unit": "µg/mL"}]}
